The assay deals with RhoA in MDA-MB-231 cells. Put plainly: AB-FRET RhoA activation, MDA-MB-231 with RhoA biosensor. It is filed as cell-based. The method, then:
MDA-MB-231 native or KD cells were seeded (5000 cells/well; ovn, 37 °C) in a chambered coverglass system (Lab-Tek®) coated with a type I collagen matrix (100 μg/mL; Corning). These cells were transfected using the pBabe-puro-RhoA plasmid (0.15 μg; Addgene plasmid #12602) diluted in a buffer solution (JetOPTIMUS® buffer) and a transfection agent (TA; 10 min). The mixture was incorporated into the culture medium (4 h; 37 °C). Two to three hours before image acquisition, the cells expressing the RhoA biosensor were starved in fresh EMEM containing 0.1% FBS and no phenol red. […]
To further elucidate the mechanism of action of CD44v3 mimetic peptide 4, we studied its effect on the TrkA signaling pathway. […] Additionally, to confirm that this effect was independent of TrkA phosphorylation, we measured RhoA activation in MDA-MB-231 cells expressing dead TrkA kinase, which cannot be phosphorylated (Fig. 5D). […]
Fig. 5 CD44v3 is implicated in the phospho-TrkA-independent activation of RhoA GTPase. Phosphorylation of TrkA was measured in the presence of a scramble peptide or CD44v3 mimetic peptide 4 (P4) in the presence or absence of NGF (A). […] Phosphorylation of TrkA and downstream Akt in wild-type MDA-MB-231 and MDA-MB-231 cells expressing kinase-dead TrkA, as determined by western blotting (D). […]

Consider 1 sequence from paper PMC8962522, “Direct interaction of TrkA/CD44v3 is essential for NGF-promoted aggressiveness of breast cancer cells” (Journal of Experimental & Clinical Cancer Research : CR, 2022).

“Also recorded” adds a separate entry of the source.

As for “IDDDEDFISST [Peptide 4, mimetic peptide 4 (…) corresponding to the C-terminal region of CD44v3]”, the “Mean donor peak (AB-FRET, RhoA activation), with NGF” value was 1.23. Moreover, the “NGF-induced FRET signal (RhoA activity), in words” value (statement: NGF increased the signal with scramble peptide, not with peptide 4, listed as CD44v3 mimetic peptide 4) is reported as “NGF increased the FRET signal in the presence of the scramble peptide but not with CD44v3 mimetic peptide 4; also recorded: inhibits TrkA phosphorylation-independent RhoA activation induced by NGF”.
